# Results reported in patent US20240058291A1, “COMPOSITION FOR CONTROLLING SUGAR, CONTAINING ATYPICAL PKC ACTIVATOR” (INDUSTRY-ACADEMIC COOPERATION FOUNDATION, YONSEI UNIVERSITY, priority 2021, published 2024).
# Experiments:
# IEC-18 cells [1] = assay: Western blot of GLUT transporters after treatment, IEC-18 cells; assay type: cell-based; details: for GLUT1 phosphorylation: 30, 100 and 300 nM, 30 minutes, Western blot; for expression of p-GLUT1 and GLUT1: compared to Na/K ATPase
# Protocol: (§1) For culture of IEC-6 cells (ATCC CRL-1592) and IEC-18 cells (ATCC CRL-1589), which are intestinal epithelial cells, the cells were cultured using Dulbecco's modified Eagle medium (DMEM) supplemented with 10% fetal bovine serum (FBS) and penicillin-streptomycin at 37° C. in a humidified atmosphere containing 10% CO2 and 90% air, and were subcultured every 3 to 4 days. […] When the cell density reached 1.5×10^5 cells/cm^2 after 6 days, the cultures were collected and used. Prostratin was purchased from Sigma-Aldrich (Cat. No. P0077) and used. Ingenol was purchased from Sigma-Aldrich (Cat. No. SML1318) and used. IEC-6 cells and IEC-18 cells were treated with each of prostratin and ingenol at 30 nM, 100 nM, and 300 nM for 30 minutes, cell lysates were collected, and protein expression levels thereof were analyzed by Western blotting. Western blot analysis was performed as follows. Total cell protein lysates were prepared and subjected to Western blot analysis according to standard procedures. Briefly, cells were chilled on ice, washed twice with ice-cold phosphate-buffered saline, and lysed in buffer containing 1 mM. phenylmethylsulfonyl fluoride and lx protease inhibitor (Sigma-Aldrich). Protein concentration was measured with a Bradford assay kit (Bio-Rad, Hercules, CA, USA). Equal amounts of protein from the cell lysates were resolved by sodium dodecyl sulfate polyacrylamide gel electrophoresis and transferred to membranes which were then incubated with anti-PKCα (Cell Signaling Technology, USA), anti-PKCδ (Cell Signaling Technology, USA), anti-PKCζ (Cell Signaling Technology, USA), anti-p-GLUT1 (Abcam, GB), anti-GLUT1 (Abcam, GB) and anti-GLUT2 (Novus Biological, USA) as primary antibodies overnight at 4° C. The blots were washed 3 times with TBST (Tris-buffered saline containing 0.05% Tween 20) and then incubated with horseradish peroxidase (HRP)-conjugated secondary antibodies for 1 hour at 25° C. As the secondary antibodies, donkey anti-rabbit IgG-HRP antibody (1:5000, Santa Cruz) and donkey anti-mouse IgG-HRP antibody (1:5000, Santa Cruz) were used. Immunoreactivity was detected with SuperSignal West Pico Chemiluminescent Substrate (Thermo Fisher Scientific, MA, USA).
# IEC-6 cells [2] = assay: Western blot of GLUT transporters after treatment, IEC-6 cells; assay type: cell-based; details: for GLUT1 phosphorylation: 30, 100 and 300 nM, 30 minutes, Western blot; for expression of p-GLUT1 and GLUT1: compared to Na/K ATPase
# Protocol: as §1
# IEC-18 cells [3] = assay: Western blot of PKC zeta, p-GLUT1 and GLUT1 with ingenol, IEC-18 cells; assay type: cell-based; details: ingenol 0.1 μM, vs empty vector negative control
# Protocol: (§2) Transfected cell lines were generated by transfection such that PKC zeta was transiently overexpressed in IEC-6 cells, IEC-18 cells, and HEK293 (ATCC CRL-1573) cells. A rat PKC zeta-expressing plasmid (Korea Gene Bank) was subcloned into pCDNA3.1 (Addgene, USA). […] Cells were transfected with the expression plasmid using Polyjet transfection reagent (SignaGen) according to the manufacturer's instructions. Transfected cells were cultured for 48 hours at 37° C. before lysis and treated with ingenol (0.1 μM). Cell lysates were collected for the empty vector-infected cell group as a control group, the PKC zeta-transfected cell group, the wild-type cell group treated with ingenol, and the transfected cell group treated with ingenol, and subjected to Western blotting. In Western blotting, Na/K ATPase was used as a membrane loading control.
# IEC-6 cells [4] = assay: Intracellular glucose (2-DG) uptake, IEC-6 cells; assay type: cell-based; details: 100 nM
# Protocol: (§3) IEC-6 cells and IEC-18 cells were treated with each of prostratin and ingenol (100 nM) for 10 minutes, and then uptake of 2-deoxy-D-glucose (2-DG) in the collected cell lysates was analyzed. By measuring the glucose concentration, changes in glucose uptake (2-DG uptake) by treatment with each of prostratin and ingenol were determined. The amount of glucose was measured after treatment with each of prostratin and ingenol in a low-concentration glucose medium and serum-free DMEM for 24 hours. Glucose levels in the IEC-6 and IEC-18 cells were detected using a Glucose Assay Kit (Cayman Chemical) according to the manufacturer's instructions. Absorbance signals were measured with a Gen5 spectrophotometer (BioTek, Winooski, VT, USA).
# IEC-18 cells [5] = assay: Intracellular glucose (2-DG) uptake, IEC-18 cells; assay type: cell-based; details: 100 nM
# Protocol: as §3
# db/db mice [6] = assay: Intraperitoneal glucose tolerance test (IPGTT) in diabetic model mice on day 17; assay type: in vivo
# Protocol: Each of prostratin (0.5 mg/kg) and ingenol (1 μg/kg) was intraperitoneally injected daily for 40 days into db/db mice (Jackson Laboratory), known as a representative diabetes model due to deficiency of the leptin receptor, and then the body weight of each mouse was measured. On day 17 after drug administration, an intraperitoneal glucose tolerance test (IPGTT) was performed. […] In the group to which 1 μg/kg of ingenol was administered, the glucose improvement effect appeared at 240 minutes after glucose administration.
# IEC-18 cells [7] = assay: Western blot of PKC and GLUT1 activation over time, IEC-18 cells; assay type: cell-based; details: prostratin 2 μM; for activities of PKC zeta and GLUT1: ingenol 0.1 μM, 0, 15 and 60 minutes
# Protocol: After treatment of IEC-18 cells with each of prostratin (2 μM) and ingenol (0.1 μM) for 0, 15, and 60 minutes, the expression of PKC and GLUT1 proteins was analyzed by Western blotting.
# IEC-18 cells [8] = assay: Glucose uptake with and without PKC zeta inhibitor ZIP, IEC-18 cells; assay type: cell-based; details: 100 nM
# HEK293 = assay: Western blot of PKC zeta, p-GLUT1 and GLUT1 with ingenol, HEK293 cells; assay type: cell-based; details: vs empty vector negative control
# Protocol: as §2
# IEC-6 cells [9] = assay: Western blot of PKC zeta, p-GLUT1 and GLUT1 with ingenol, IEC-6 cells; assay type: cell-based; details: ingenol 0.1 μM, vs empty vector negative control
# Protocol: as §2
# IEC-6 cell line [10] = assay: 2DG uptake after PKC siRNA transfection; assay type: cell-based; details: prostratin 1 μM or ingenol 100 nM
# Protocol: In order to identify which PKC subtypes induce increased glucose uptake (2DG uptake) in IEC cells by treatment with each of prostratin and ingenol, the IEC-6 cell line was transfected with siRNA for each of conventional PKC (PKCα), novel PKC ([…]), and atypical PKCs (PKCζ and […]) as described in Example 7. After 48 hours, the cells were treated with prostratin (1 μM) or ingenol (100 nM), and 2DG uptake therein was analyzed.
# IEC-6 cells [11] = assay: Glucose uptake with and without PKC zeta inhibitor ZIP, IEC-6 cells; assay type: cell-based; details: 100 nM
# db/db mice [12] = assay: Body weight in diabetic model mice, daily intraperitoneal injection for 40 days; assay type: in vivo
# Protocol: Each of prostratin (0.5 mg/kg) and ingenol (1 μg/kg) was intraperitoneally injected daily for 40 days into db/db mice (Jackson Laboratory), known as a representative diabetes model due to deficiency of the leptin receptor, and then the body weight of each mouse was measured.
# C57BL6 mice [13] = assay: IP glucose tolerance test after single subcutaneous injection; assay type: in vivo; details: 2 g/kg glucose
# Protocol: After 12 C57BL6 mice were fasted for 12 hours, fasting blood glucose was measured by performing an intraperitoneal glucose test. Thereafter, ingenol (4 μg/kg) and prostratin (1 mg/kg) was injected subcutaneously once into the ingenol-administered group (4 mice) and the prostratin-administered group, respectively, and 2 g of glucose per kg of mouse (2 g/kg glucose) was diluted in physiological saline and intraperitoneally administered to each mouse. Thereafter, an IP glucose tolerance test was performed at 15 minutes, 30 minutes, 60 minutes, 90 minutes, and 120 minutes.
# db/db mice [14] = assay: 18FDG absorption and excretion in intestines of diabetic model mice; assay type: in vivo; details: 0.5 mg/kg for 1 month
# Protocol: The intestines of db/db mice (Jackson Laboratory) to which 0.5 mg/kg of prostratin had been administered for 1 month were harvested and radiographed for 18FDG (fluorodeoxyglucose, DuChemBio). 18FDG was purchased from DuChemBio and 200 μCi was injected into each mouse via the tail vein. In addition, 18FDG in a fecal sample obtained by washing the harvested small intestine with 5 mL of PBS was measured, and 18FDG uptake of the duodenum, jejunum, and ileum of the small intestine was measured with a gamma counter.
# C57BL6 mice [15] = assay: IP glucose tolerance test after 2 weeks of administration by osmotic pump; assay type: in vivo; details: 0.5 mg/kg and 1 mg/kg for 2 weeks, 2 g/kg glucose
# Protocol: Prostratin was administered to C57BL6 mice at concentrations of 0 mg/kg, 0.5 mg/kg, and 1 mg/kg for 2 weeks using an osmotic pump, followed by fasting for 12 hours. Then, 2 g of glucose per kg of mouse (2 g/kg glucose) was diluted in physiological saline and intraperitoneally administered to each mouse. Thereafter, an IP glucose tolerance test was performed at 15 minutes, 30 minutes, 60 minutes, 90 minutes, and 120 minutes.
# db/db mice [16] = assay: Electron microscopy of apical membrane of jejunum lumen of diabetic model mice; assay type: in vivo; details: 0.5 mg/kg for 1 month, electron microscope
# IEC-6 cell line [17] = assay: Western blot of p-GLUT1 after PKC siRNA transfection and prostratin treatment; assay type: cell-based; details: prostratin 1 μM
# Protocol: To identify which PKC subtypes induce GLUT1 activation by each of prostratin and ingenol, the IEC-6 cell line was transfected with 50 nM of siRNA for each of conventional PKC (PKCα), novel PKC ([…]), and atypical PKCs (PKCζ and […]) using RNAiMax (Invitrogen). After 48 hours, the cells were treated with prostratin (1 μM), and total protein was extracted and subjected to Western blotting. The siRNA sequences used are as follows.
# human pancreatic tumors = details: orally administered; cited from earlier work
# db/db mice [18] = assay: Immunohistochemical staining of PKC zeta in small intestine of diabetic model mice; assay type: in vivo; details: 0.5 mg/kg for 1 month
# Protocol: After administration of prostratin (0.5 mg/kg) or vehicle to db/db mice for 1 month, the small intestine was harvested, and the duodenum, jejunum, and ileum were fixed with formalin, subjected to immunohistochemical staining with anti-PKC zeta antibody (Abcam, USA), and imaged with an optical microscope at 100× and 400× magnifications.
# [19] = atypical PKC (PKCζ and PKC↓)-knockdown group
compound,measurement,setting,value
C/C=C(/C)C(=O)O[C@H]1C(C)=C[C@]23C(=O)[C@@H](C=C(CO)[C@@H](O)[C@]12O)[C@H]1[C@@H](C[C@H]3C)C1(C)C [ingenol-3-angelate],GLUT1 phosphorylation,IEC-18 cells [1],promoted
same,expression of p-GLUT1 and GLUT1,IEC-18 cells [1],increased
same,GLUT1 phosphorylation,IEC-6 cells [2],promoted
same,expression of p-GLUT1 and GLUT1,IEC-6 cells [2],increased
same,GLUT1 translocation,IEC-18 cells [3],translocated
same,PKC zeta activation and translocation to the cell membrane,IEC-18 cells [3],activated and translocated to the cell membrane
same,intracellular glucose (2-DG) uptake,IEC-6 cells [4],increased
same,intracellular glucose (2-DG) uptake,IEC-18 cells [5],increased
same,glucose improvement effect (IPGTT),"db/db mice [6]; ingenol 1 μg/kg, at 240 minutes after glucose administration",appeared
same,activities of PKC zeta and GLUT1,IEC-18 cells [7],increased
same,6-phosphate glucose in the cells,IEC-18 cells [8],increased
same,GLUT1 translocation,HEK293,translocated
same,PKC zeta activation and translocation to the cell membrane,HEK293,activated and translocated to the cell membrane
same,GLUT1 translocation,IEC-6 cells [9],translocated
same,PKC zeta activation and translocation to the cell membrane,IEC-6 cells [9],activated and translocated to the cell membrane
same,2DG uptake,IEC-6 cell line [10]; [19],not increased
same,2DG uptake,IEC-6 cell line [10]; negative control group (siNeg),increased
same,6-phosphate glucose in the cells,IEC-6 cells [11],increased
same,weight loss,"db/db mice [12]; ingenol 1 μg/kg i.p. daily, increased to 2 μg/kg on day 28, day 30",showed statistical significance
same,glucose metabolism (IP glucose tolerance test) compared to negative control,C57BL6 mice [13]; ingenol 4 μg/kg subcutaneously once,improved
CC(=O)O[C@@]12C[C@@H](C)[C@@]3(O)[C@@H](C=C(CO)C[C@]4(O)C(=O)C(C)=C[C@@H]34)[C@@H]1C2(C)C [prostratin],GLUT1 phosphorylation,IEC-18 cells [1],promoted
same,expression of p-GLUT1 and GLUT1,IEC-18 cells [1],increased
same,"glucose absorption in duodenum, jejunum and ileum (18FDG, gamma counter)",db/db mice [14],more than doubled
same,glucose absorption in the small intestine (18FDG radiographs) vs vehicle group,db/db mice [14],significantly higher
same,glucose excretion in the fecal samples (18FDG),db/db mice [14],higher
same,GLUT1 phosphorylation,IEC-6 cells [2],promoted
same,expression of p-GLUT1 and GLUT1,IEC-6 cells [2],increased
same,intracellular glucose (2-DG) uptake,IEC-6 cells [4],increased
same,intracellular glucose (2-DG) uptake,IEC-18 cells [5],increased
same,area values under the glucose change curve for 2 hours,C57BL6 mice [15],improved
same,glycocalyx near the microvilli of the jejunum vs vehicle,db/db mice [16],secreted more
same,number of mitochondria in the small intestine cells,db/db mice [16],increased
same,expression of GLUT1 (p-GLUT1),IEC-6 cell line [17]; negative control group (siNeg),increased
same,expression of GLUT1 (p-GLUT1),IEC-6 cell line [17]; siRNA for atypical PKCs (PKCζ and PKC↓),did not increase
same,effect on human pancreatic tumors,human pancreatic tumors,inhibited
same,glucose improvement (IPGTT) vs vehicle group,"db/db mice [6]; prostratin 0.5 mg/kg, entire period of 30 to 240 minutes",superior to that in the control group
same,"translocation of PKC and GLUT1 to the cell membrane, prostratin compared with ingenol",IEC-18 cells [7]; ingenol 0.1 μM,more rapidly translocated
same,activities of PKC zeta and GLUT1,IEC-18 cells [7],increased
same,6-phosphate glucose in the cells,IEC-18 cells [8],increased
same,2DG uptake,IEC-6 cell line [10]; [19],not increased
same,2DG uptake,IEC-6 cell line [10]; negative control group (siNeg),increased
same,6-phosphate glucose in the cells,IEC-6 cells [11],increased
same,PKC zeta staining in the duodenum vs vehicle,db/db mice [18],no significant difference
same,location of PKC zeta in the jejunum and ileum,db/db mice [18],tended to be concentrated in the apical membrane of the lumen
same,weight loss compared to vehicle group,"db/db mice [12]; prostratin 0.5 mg/kg i.p. daily, on and after day 11",showed statistical significance
same,glucose metabolism (IP glucose tolerance test) compared to Vehicle,"C57BL6 mice [13]; prostratin 1 mg/kg subcutaneously once, at 30 and 60 minutes",significantly improved
